# Results published in patent US10221160B2, “Metalloenzyme inhibitor compounds” (Mycovia Pharmaceuticals, Inc., priority 2012, dated 2019).
# Like-named read-outs stand apart in the source and are kept apart here.
# How the values were obtained:
# C. albicans = experiment: Minimum Inhibitory Concentration (MIC), CLSI M27-A2; type: cell-based; details: Candida albicans
# Procedure: A. Minimum Inhibitory Concentration (MIC) Compounds were assessed for their ability to inhibit the growth of common strains of fungus, C. albicans using a standardized procedure (CLSI M27-A2). Stock solutions of the test compounds and standards were prepared in DMSO at 1,600 μg/mL (C. albicans). Eleven, serial, one-half dilutions of compounds were prepared in 96-well plates in RPMI+MOPS. The assay concentration ranges were 8-0.001 μg/mL (C. albicans). Cell suspensions of C. albicans were prepared and added to each well at concentrations of approximately 3.7×10^3 colony-forming-units per milliliter (cfu/mL). All testing was in duplicate. The inoculated plates were incubated for approximately 48 h at 35±1° C. At the completion of incubation the wells of each plate were evaluated visually for the presence of fungal growth. […] For QC purposes C. krusei isolate ATCC 6258 (4.0×10^3 cfu/mL) was included in the VOR assay.
# CYP3A4 = CYP3A4 (Homo sapiens (Human), UniProt P08684); experiment: Inhibition of liver cytochrome P450 enzymes (pooled human liver microsomes); type: in vitro ADME
# Chain of CYP3A4 (P08684 whole entry): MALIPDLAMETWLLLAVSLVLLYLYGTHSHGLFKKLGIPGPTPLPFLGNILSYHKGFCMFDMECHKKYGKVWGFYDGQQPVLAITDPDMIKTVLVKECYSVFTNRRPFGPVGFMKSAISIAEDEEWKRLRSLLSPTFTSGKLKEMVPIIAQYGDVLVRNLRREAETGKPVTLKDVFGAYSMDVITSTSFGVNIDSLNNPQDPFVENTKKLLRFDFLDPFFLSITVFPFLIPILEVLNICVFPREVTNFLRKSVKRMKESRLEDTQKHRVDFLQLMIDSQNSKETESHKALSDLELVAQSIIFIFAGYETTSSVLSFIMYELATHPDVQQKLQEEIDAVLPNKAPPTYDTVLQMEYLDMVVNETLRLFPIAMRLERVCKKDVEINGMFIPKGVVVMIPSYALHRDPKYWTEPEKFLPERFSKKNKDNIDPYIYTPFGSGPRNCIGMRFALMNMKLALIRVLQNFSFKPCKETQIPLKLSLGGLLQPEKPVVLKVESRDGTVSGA
# Procedure: A. […] Solutions of each test compound were separately prepared at concentrations of 20000, 6000, 2000, 600, 200, and 60 μM by serial dilution with DMSO:MeCN (50:50 v/v). The individual test compound solutions were then diluted 20-fold with DMSO:MeCN:deionized water (5:5:180 v/v/v) to concentrations of 1000, 300, 100, 30, 10, and 3 μM. […] The mixed inhibitor solutions were then diluted 20-fold with DMSO:MeCN:deionized water (5:5:180 v/v/v) to concentrations of 300, 100, 30, 10, 3, 1, 0.3, and 0.1 μM. The percent of organic solvent attributable to the test compound or inhibitor mixture in the final reaction mixture was 2% v/v. Pooled human liver microsome suspension (20 mg/mL) was diluted with phosphate buffer to obtain a 5 mg/mL suspension. A solution of NADPH was prepared in phosphate buffer at a concentration of 5 mM. Separate stock solutions of each substrate were prepared in DMSO:MeCN (50:50 v/v), mixed, and diluted in phosphate buffer to obtain a single solution containing each substrate at five times its experimentally determined Km concentration. […] A portion of the supernatant was analyzed by gradient reverse-phase HPLC with detection by electrospray ionization triple quadrupole mass spectrometry in the positive ion mode. Data was fitted to sigmoid dose-response curves and the inhibitory potency of each test compound was determined as its IC50 value.
smiles,measurement,setting,value
"OC(Cn1cnnn1)(c1ccc(F)cc1F)C(F)(F)c1ccc(-c2ccc(C(F)(F)F)cc2)cn1 (stereo not drawn) [Example 2, 2-(2,4-Difluorophenyl)-1,1-difluoro-3-(1H-tetrazol-1-yl)-1-(5-(4-(trifluoromethyl)phenyl)pyridin-2-yl) propan-2-ol]",MIC,"C. albicans; 48 h, about 50% growth reduction, approximately 48 h at 35 °C, read-out: Candida MIC",≤ 0.016 µg/mL
same,MIC,"C. albicans; rating scale, read-out: Candida MIC Rating",< 0.5 µg/mL
same,IC50,CYP3A4,> 60 µM
